# From patent US20260258420A1, “COMPOSITIONS AND METHODS FOR THE TREATMENT OF HUMAN PAPILLOMAVIRUS-DRIVEN CANCERS” (priority 2023, published 2026)
# Key:
# Assay type in all cases: cell-based
# [1] = tested on: 16 HPV-positive and 17 HPV-negative HNSCC and cervical squamous cancer cell lines; test: High-throughput drug screen (HTDS), whole panel, comparison by HPV status; conditions: for efficacy in HPV-positive vs HPV-negative cell lines: AOC_LD as a dichotomous variable; for odds ratio: sensitivity in HPV-positive vs HPV-negative cell lines; for cell death: at concentrations known to inhibit mTOR
# Procedure: (§1) The concordance correlation coefficient was computed to assess the reproducibility of the normalized growth rates of the 2 replicates. […] A chi-square test was applied to compare drug classification and the cluster membership. The Fisher exact test was applied to compare mutations status (wild-type and mutant) and drugs' response data (sensitive and resistant).
# (§2) The effects of 864 unique drugs from 51 classes was tested in 16 HPV-positive and 17 HPV-negative HNSCC and cervical squamous cancer cell lines (Table 2) that were characterized previously (Kaiu, et al., Oncotarget 2017; 8(49):86369-83).
# [2] = tested on: 16 HPV-positive HNSCC and cervical squamous cancer cell lines; test: High-throughput drug screen (HTDS), cell death by AOC_LD, HPV-positive cell lines; conditions: for HPV positive Resistant (number of cell lines): resistant = AOC_LD 0; for HPV positive Sensitive (number of cell lines): sensitive = AOC_LD greater than 0
# Procedure: as §1, §2
# [3] = tested on: 17 HPV-negative HNSCC and cervical squamous cancer cell lines; test: High-throughput drug screen (HTDS), cell death by AOC_LD, HPV-negative cell lines; conditions: for HPV negative Resistant (number of cell lines): resistant = AOC_LD 0; for HPV negative Sensitive (number of cell lines): sensitive = AOC_LD greater than 0
# Procedure: as §1, §2
Compound,efficacy in HPV-positive vs HPV-negative cell lines [1],HPV positive Resistant (number of cell lines) [2],HPV positive Sensitive (number of cell lines) [2],HPV negative Resistant (number of cell lines) [3],HPV negative Sensitive (number of cell lines) [3],odds ratio [1],cell death [1]
Cc1csc(-c2nnc(Nc3ccc(Oc4ncccc4-c4ccnc(N)n4)cc3)c3ccccc23)c1 [AMG900],tended to be more effective in HPV-positive cell lines,–,–,–,–,–,–
COc1cc(NS(C)(=O)=O)ccc1Nc1c2ccccc2nc2ccccc12 [AMSACRINE],–,5,11,15,2,–,–
Clc1ccc(C2(c3ccc(-c4cn[nH]c4)cc3)CCNCC2)cc1 [AT7867],–,12,4,17,0,Inf,–
O=C(Nc1c[nH]nc1-c1nc2ccc(CN3CCOCC3)cc2[nH]1)NC1CC1 [AT9283],–,3,13,10,7,–,–
CNC(=O)c1ccccc1Sc1ccc2c(/C=C/c3ccccn3)n[nH]c2c1 [AXITINIB],–,8,8,16,1,–,–
COc1ccc(-c2ccc3c(N4CCOC[C@@H]4C)nc(N4CCOC[C@@H]4C)nc3n2)cc1CO [AZD8055],–,11,5,17,0,Inf,–
O=C(Nc1cccc(Nc2ncc(Br)c(NCCc3cnc[nH]3)n2)c1)N1CCCC1 [BX912],–,8,8,16,1,14.66,–
CC(C)C[C@H](NC(=O)[C@H](CCc1ccccc1)NC(=O)CN1CCOCC1)C(=O)N[C@@H](Cc1ccccc1)C(=O)N[C@@H](CC(C)C)C(=O)[C@@]1(C)CO1 [CARFILZOMIB],–,0,16,5,12,Inf,–
CN(C)c1ccc(-c2nc3ncc(Cl)c(N4CCN(CC(=O)Nc5nccs5)CC4)c3[nH]2)cc1 [CCT129202],tended to be more effective in HPV-positive cell lines,–,–,–,–,–,–
Cc1cc(CN2CCN(c3c(Br)cnc4nc(-c5ccc(N6CCN(C)CC6)cc5)[nH]c34)CC2)no1 [CCT137690],tended to be more effective in HPV-positive cell lines,–,–,–,–,–,–
COc1cc2c(c(OC)c1OC)-c1ccc(OC)c(=O)cc1[C@@H](NC(C)=O)CC2 [COLCHICINE],–,–,15,–,10,–,–
Cc1nc(N)sc1-c1ccnc(Nc2ccc(N3CCOCC3)cc2)n1 [CYC116],tended to be more effective in HPV-positive cell lines,7,9,15,2,–,–
CN1CCN(c2ccc3nc(-c4c(N)c5c(F)cccc5[nH]c4=O)[nH]c3c2)CC1 [DOVITINIB],–,10,6,16,1,–,–
COc1cc([C@@H]2c3cc4c(cc3[C@@H](O[C@@H]3O[C@@H]5CO[C@@H](C)O[C@H]5[C@H](O)[C@H]3O)[C@H]3COC(=O)[C@H]23)OCO4)cc(OC)c1O [ETOPOSIDE],–,7,9,15,2,–,–
Nc1nc(F)nc2c1ncn2[C@@H]1O[C@H](CO)[C@@H](O)[C@@H]1O [FLUDARABINE],–,13,3,6,11,–,–
CCn1cc(-c2ccnc3[nH]c(-c4cccc(CN(C)C)c4)cc23)c(-c2ccc(NC(=O)N(C)C)cc2)n1 [GSK1070916],tended to be more effective in HPV-positive cell lines,4,12,12,5,–,–
Nc1nc(Nc2ccc(S(N)(=O)=O)cc2)nn1C(=O)c1c(F)cccc1F [JNJ7706621],more effective in HPV-positive than in HPV-negative cell lines,4,12,11,6,–,–

Compound,efficacy in HPV-positive vs HPV-negative cell lines [1],HPV positive Resistant (number of cell lines) [2],HPV positive Sensitive (number of cell lines) [2],HPV negative Resistant (number of cell lines) [3],HPV negative Sensitive (number of cell lines) [3],odds ratio [1],cell death [1]
CCCCCCOC(=O)[C@]1(O)C[C@@H]2O[C@@]1(C)n1c3ccccc3c3c4c(c5c6ccccc6n2c5c31)C(=O)NC4 [KT5720],–,12,4,17,0,Inf,–
O=C(O)[C@]1(Cc2cccc(Nc3nccs3)n2)CC[C@@H](Oc2cccc(Cl)c2F)CC1 [MK5108],tended to be more effective in HPV-positive cell lines,–,–,–,–,–,–
O=C(O)c1ccc(Nc2ncc3c(n2)-c2ccc(Cl)cc2C(c2c(F)cccc2F)=NC3)cc1 [MLN8054],tended to be more effective in HPV-positive cell lines,–,–,–,–,–,–
COC(=O)c1ccc2c(c1)NC(=O)/C2=C(\Nc1ccc(N(C)C(=O)CN2CCN(C)CC2)cc1)c1ccccc1 [NINTEDANIB],–,11,5,17,0,Inf,–
CC(=O)NCC(=O)N1[C@@H]2CC[C@H]1c1ccc(Nc3ncc(C(F)(F)F)c(NC4CCC4)n3)cc12 [PF03814735],tended to be more effective in HPV-positive cell lines,8,8,15,2,7.02,–
CCc1cccc(CC)c1NC(=O)N1Cc2n[nH]c(NC(=O)c3ccc(N4CCN(C)CC4)cc3)c2C1 [PHA680632],tended to be more effective in HPV-positive cell lines,–,–,–,–,–,–
O=C(Nc1cccc(Cl)c1)Nc1ncc(CCNc2ncnc3ccsc23)s1 [SNS314],tended to be more effective in HPV-positive cell lines,8,8,15,2,–,–
CCS(=O)(=O)c1cccc(-c2cc(C(=O)NC3CCN(C)CC3)c(C)c3[nH]c4ncc(C)cc4c23)c1 [TAK901],tended to be more effective in HPV-positive cell lines,–,–,–,–,–,–
"Cc1cc(Nc2cc(N3CCN(C)CC3)nc(Sc3ccc(NC(=O)C4CC4)cc3)n2)[nH]n1 [TOZASERTIB, tozasertib]",tended to be more effective in HPV-positive cell lines,7,9,15,2,–,–
COc1cc2c(Nc3ccc(NC(=O)c4ccccc4)cc3)ncnc2cc1OCCCN1CCOCC1 [ZM447439],tended to be more effective in HPV-positive cell lines,6,10,14,3,7.24,–
CO[C@@H](C(=O)N1Cc2n[nH]c(NC(=O)c3ccc(N4CCN(C)CC4)cc3)c2C1)c1ccccc1 [danusertib],tended to be more effective in HPV-positive cell lines,–,–,–,–,–,–
CO[C@H]1C[C@@H]2CC[C@@H](C)[C@@](O)(O2)C(=O)C(=O)N2CCCC[C@H]2C(=O)O[C@H]([C@H](C)C[C@@H]2CC[C@@H](OCCO)[C@H](OC)C2)CC(=O)[C@H](C)/C=C(\C)[C@@H](O)[C@@H](OC)C(=O)[C@H](C)C[C@H](C)/C=C/C=C/C=C/1C [everolimus],–,–,–,–,–,–,caused cell death only in a single cell line
COc1ccc([C@@H]2CC(=O)c3c(O)cc(O[C@@H]4O[C@H](CO[C@@H]5O[C@@H](C)[C@H](O)[C@@H](O)[C@H]5O)[C@@H](O)[C@H](O)[C@H]4O)cc3O2)cc1O [hesperidin],more effective in HPV-positive than in HPV-negative cell lines,–,–,–,–,–,–
CO[C@H]1C[C@@H]2CC[C@@H](C)[C@@](O)(O2)C(=O)C(=O)N2CCCC[C@H]2C(=O)O[C@H]([C@H](C)C[C@@H]2CC[C@@H](OP(C)(C)=O)[C@H](OC)C2)CC(=O)[C@H](C)/C=C(\C)[C@@H](O)[C@@H](OC)C(=O)[C@H](C)C[C@H](C)/C=C/C=C/C=C/1C [ridaforolimus],–,–,–,–,–,–,caused cell death only in a single cell line
BLEOMYCIN,–,6,10,13,4,5.12,–
WYE354,–,10,6,16,1,8.98,–
